Laboratory results taken from patent US7850946B2, “Macrocyclic cyanine and indocyanine bioconjugates provide improved biomedical applications” (Washington University in St. Louis, priority 2003, dated 2010).
Starred links: 1 amine or outer side, 2 acyl side, 3 side chain; linkers in the order of their positions; H or OH if unused. Positions of bridges follow the written chain, without caps; N, C: chain ends. Non-standard residues stand in square brackets, D forms with d. Residues, ends and D or L forms follow the SMILES beside them. X1 = CC1(C)C(/C=C/C=C/C=C/C=C2/N(CCC(=O)[*:2])c3ccc4ccccc4c3C2(C)C)=[N+](CCC(=O)[*:1])c2ccc3ccccc3c21

How the values were obtained:
[1] = test system: CA20948 tumor-bearing mice; assay: Contrast agent-mediated optical imaging / biodistribution in tumor (CA20948) bearing mice; assay type: in vivo; conditions: 0.5 mL of a 1 μM solution via lateral tail vein
Excerpt: The instrument consists of an excitation source and a charge-coupled device (CCD) camera for signal detection. To image compounds such as compound 18 that absorb and emit radiation in the near infrared region, a nominal 780 nm collimated solid state laser source was used to excite the compounds. The nominal 50 mW of incident power from the laser was reduced to about 20 mW at the output of the fiber optic bundle. A CCD camera (12 bit, 1024×1024 pixel, back illuminated) was equipped with the appropriate interference filter to capture the emitted photons at 830 nm. Biodistribution of the dyes and receptor-specific optical contrast agent in mice were performed by injecting 0.5 mL of a 1 μM solution of the compound via the lateral tail vein of tumor (CA20948) bearing mice. […] In contrast, injection of somatostatin-avid optical probes in CA20948 tumor-bearing mice preferentially accumulates in the tumor.

[2] = molecular target: T1, SSTR2 (Rattus norvegicus, UniProt P30680); assay: Receptor binding affinity: competition with 111In-DTPA-octreotide in AR42J tumor cell membranes; conditions: 37° C., 2 h, radioligand 111In-DTPA-octreotide, read-out: IC50 relative to 111In-DTPA-octreotide
T1 construct: A preparation of cell membranes was made from AR42J cells by brief sonication; endogenous in cells; host or cells: AR42J rat pancreatic carcinoma cells (membrane preparation)
T1 sequence (P30680 whole entry): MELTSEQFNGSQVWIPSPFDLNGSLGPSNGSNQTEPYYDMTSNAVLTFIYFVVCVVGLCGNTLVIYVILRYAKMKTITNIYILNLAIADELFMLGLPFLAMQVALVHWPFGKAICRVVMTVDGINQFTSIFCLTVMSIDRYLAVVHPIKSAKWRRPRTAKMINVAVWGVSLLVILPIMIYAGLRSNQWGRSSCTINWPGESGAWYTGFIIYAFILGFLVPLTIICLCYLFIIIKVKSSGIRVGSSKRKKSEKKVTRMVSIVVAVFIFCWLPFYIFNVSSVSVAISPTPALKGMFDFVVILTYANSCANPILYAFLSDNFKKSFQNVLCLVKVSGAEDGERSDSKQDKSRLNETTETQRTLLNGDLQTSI
Experimental: The binding affinity of somatostatin analogues was carried out using ^111In-DTPA-octreotide in AR42J tumor cells according to previously reported methods with minor modifications (Lewis, J. S., Lewis, M. R., Srinivasan, A., Schmidt, M. A., Wang, J., and Anderson, C. J. (1999) Comparison of Four ^64Cu-labeled Somatostatin Analogs in vitro and in a Tumor-bearing Rat Model: Evaluation of New Derivatives for PET Imaging and Targeted Radiotherapy. J. Med. Chem. 42, 1.341-1347). The AR42J rat pancreatic carcinoma cell line is known to express SSTR2 both in vitro and in vivo ((Rosewicz, S., Vogt, D., Harth, N., Grund, C., Franke, W. W., Ruppert, S., Schweitzer, E., Riecken, E.-O., and Wiedenman, B. (1992) An Amphicrine Pancreatic Cell Line: AR42J Cells Combine Exocrine and Neuroendocrine Properties. Eur. J. Cell Biol. 59, 80-91; Christophe, J. (1994) Pancreatic Tumoral Cell Line AR42J: An Amphicrine Model. Am. J.
Physiol. (Gastrointest. Liver Physiol.) 266 (29), G963-G971). […] The filters containing membrane-bound radioactivity were removed from the assay plate and counted using a Beckman 8000 automated well-typed counter (Fullerton, Calif.). Specific binding was calculated by subtracting the non-specifically bound radioactivity from that of total binding. The best-fit IC50 values were calculated using PRISM™ (Graphpad, San Diego, Calif.). […]

time to clearance from the blood postinjection [1] | biodistribution: site of accumulation ([1]; optical imaging 780 nm excitation / 830 nm emission) | IC50 [2] | Structure (SMILES)
≤ 1 h | accumulates in the liver | – | CC1(C)C(/C=C/C=C/C=C/C=C2/N(CCC(=O)O)c3ccc4ccccc4c3C2(C)C)=[N+](CCC(=O)O)c2ccc3ccccc3c21 [Compound 2, Bispropylcarboxymethylindocyanine Dye]
– | – | 8.17 nM | C[C@@H](O)[C@@H]1NC(=O)[C@@H]2CSSC[C@H](NC(=O)[C@@H](Cc3ccccc3)NC(=O)CC[N+]3=C(/C=C/C=C/C=C/C=C4/N(CCC(=O)NCCCC[C@@H](C(N)=O)NC1=O)c1ccc5ccccc5c1C4(C)C)C(C)(C)c1c3ccc3ccccc13)C(=O)N[C@@H](Cc1ccc(O)cc1)C(=O)N[C@H](Cc1c[nH]c3ccccc13)C(=O)N[C@@H](CCCCN)C(=O)N[C@@H]([C@@H](C)O)C(=O)N2 [Compound 18] ([dF]CY[dW]KTCTK-NH2; disulfide 2-7; linker N-9 via X1)
